IC50 data for six compounds are collected here from patent US4992439A, “Pyridazine carboxylic acids and esters” (Bristol-Myers Squibb Company, priority 1990, dated 1991).

≈ marks a conversion by molar mass, not a printed value.

The assay deals with human platelet aggregation (ADP-induced). Format: cell-based. The settings on record: human platelet rich plasma; ADP final concentration 0.5 mcg/mL; compounds in DMSO; read-out: Inhibition of Human Platelet Aggregation, IC50 vs. ADP.
Protocol: The aggregometer method of Born, C.V.R., J. Physiol., (London), 1962, 162, 67-68, as modified by Mustard, J. F., et al., J. Lab. Clin. Med. 1964, 64, 548-599 was used to assess the in vitro activity of the various compounds as to the inhibition of adenosine diphosphate (ADP) and collagen-induced platelet aggregation. The human volunteer donor's arm is cleansed with 70% ethyl alcohol. A sterile 20 ml syringe and needle are used to withdraw 20 ml of blood. The blood is immediately added to a test tube containing 3.8% sodium citrate to prevent clotting (1 part citrate to 9 parts blood).
Platelet rich plasma (PRP) was separated by centrifugation for 10 minutes at 1000 rpm (140 xg) from citrated (3.8%) human blood. All glassware used for preparation of PRP is silicon treated. ADP in final concentration of 0.5 mcg/mL or 0.05 mL of a collagen suspension prepared according to the method described by Evans, G., et al., J. Exp. Med., 1968, 128, 877-894 was used to induce aggregation. The various compounds tested were dissolved in dimethylsulfoxide (DMSO) so that 5 mcl added to the platelet rich plasma would yield the desired test concentration. Vehicle control trials were done and compared with aggregation induced in platelet rich plasma containing various concentrations of the test compounds. Dose response curves were obtained and Inhibitor Concentration (IC50) values calculated.
The term IC50 denotes the concentration needed to halve the response being measured. Regarding `O=C(O)CCCCCCCCn1nc(-c2ccccc2)c(-c2ccccc2)cc1=O` [Example 2, 6-Oxo-3,4-diphenyl-1(6H)-pyridazinenonanoic acid], the IC50 worked out at 2.9 µg/mL (≈ 7.17 µM). Take `COC(=O)CCCCCCCn1nc(-c2ccccc2)c(-c2ccccc2)cc1=O` [Example 3, Methyl 6-Oxo-3,4-diphenyl-1(6H)pyridazinyloctanoate]: the IC50 came to 7.7 µg/mL (≈ 19 µM). The figure for `COC(=O)CCCCCCCCn1nc(-c2ccccc2)c(-c2ccccc2)cc1=O` [Example 1, Methyl 6-oxo-3,4-diphenyl-1(6H)-pyridazinenonanoate] is 21 µg/mL (≈ 50.2 µM).

Regarding `O=C(O)COc1cccc(CCn2nc(-c3ccccc3)c(-c3ccccc3)cc2=O)c1` [Example 6, [3-[2-(1,6-Dihydro-6-oxo-3,4-diphenyl-1-pyridazinyl)ethyl]phenoxy]acetic Acid], the IC50 was determined as 1 µg/mL (≈ 2.34 µM). In the case of `O=C(O)CCCCCCCn1nc(-c2ccccc2)c(-c2ccccc2)cc1=O` [Example 4, 6-Oxo-3,4-diphenyl-1(6H)-pyridazinyloctanoic Acid], the IC50 was found to be 1.6 µg/mL (≈ 4.1 µM). To `COC(=O)COc1cccc(CCn2nc(-c3ccccc3)c(-c3ccccc3)cc2=O)c1` [Example 5, Methyl [3-[2-(1,6-dihydro-6-oxo-3,4-diphenyl-1-pyridazinyl)ethyl]phenoxy]acetate] belongs 0.75 µg/mL (≈ 1.7 µM).
